Results: patent publication US20220288052A1, “COMPOUND FOR COMBINATION TREATMENT” (priority 2019, published 2022)
Like-named read-outs stand apart in the source and are kept apart here.

What was measured:
[1] = beagle, dog, in vivo, iv
Description: Data presented are mean±s.e. mean where n=4 for all time points, excluding D2t7 where n=3, D3t7 where n=2, and D4t7 and D4t26 where no data was available. Animals received 1, 3, 10, and 30 mg/kg compound (I) as 4 intravenous infusions (starting at t0, D1t30, D2t30 and D3t30, respectively). Each dose was administered over 5 min, using an infusion pump, and the dose volume for each treatment was 2 ml/kg, with the exception of the fourth dose which was 3 ml/kg.
Data presented are mean±s.e. mean where n=4 for all time points, excluding D4t7 and D4t26 where no data was available. Animals received 1, 3, 10, and 30 mg/kg compound (I) as 4 intravenous infusions (starting at t0, D1t30, D2t30 and D3t30, respectively). Each dose was administered over 5 min, using an infusion pump, and the dose volume for each treatment was 2 ml/kg, with the exception of the fourth dose which was 3 ml/kg.

[2] = in vivo; details: male, Wistar, rat, plasma
[3] = test system: plasma protein; test: Plasma protein binding by equilibrium dialysis, dog; format: in vitro ADME
Description: (§1) The plasma protein binding was tested in rat, mouse, dog and human plasma by equilibrium dialysis. The plasma protein binding of this compound is remarkably low (Table 24).

[4] = test system: plasma protein; test: Plasma protein binding by equilibrium dialysis, human; format: in vitro ADME
Description: as §1

[5] = 5 days p.o. tolerated dose study in female rats (non-GLP); format: in vivo, rat; details: p.o. 5 days, 30, 60, 90 mg/kg
[6] = target: DA transporter (Homo sapiens, UniProt Q01959); test: ^3H-uptake human, DA transporter; format: biochemical
Text: (§2) Compound (I) has been characterized as a monoamine reuptake inhibitor, based on the profile in a series of functional assays (Table 2).

[7] = target: DAT (Homo sapiens, UniProt Q01959); test: MDS LeadProfilingScreen, DAT; format: binding
[8] = test system: brain levels of dopamine (DA); test: In vivo microdialysis, DA; set-up: species or system rat
Description: The purpose of the present study was to examine, by in vivo microdialysis technique, the effects after administration of compound (I) on brain levels of serotonin, noradrenalin and dopamine within the ventral hippocampus (Hipp), prefrontal cortex (PFC), striatum (STR) and nucleus accumbens (N.Acc) of anaesthetized rats and mice. Compound (I) represents dual acting serotonin/dopamine reuptake inhibitors and was tested in comparison to citalopram a selective serotonin uptake inhibitor. Compound (I) was tested following subcutaneous injections at dose levels between 0.25-30 mg/kg. […] Pre-treatment with the 5-HT1A autoreceptor antagonist WAY-100635 induced a further minor increase of the compound (I) (0.25 mg/kg) induced increase in the PFC level of 5-HT. […]

[9] = target: 5-HT transporter (Rattus norvegicus, UniProt P31652); test: ^3H-uptake rat, 5-HT transporter; format: biochemical
Text: as §2

[10] = 14-day repeat-dose study in NMRI mice; format: in vivo, mouse
Description: In a 14-day repeat-dose study 4 groups of 8 male and 8 female NMRI mice were treated daily with compound (I) at doses of 15, 30, and 60 mg/kg p.o. (Groups 2, 3 and 4), or vehicle, 5% glucose s.c. (Group 1). A satellite group 90 mg/kg p.o. (group 5) was conducted accordingly to increase the exposure and efficacy.

[11] = Bioavailability study in mouse; format: in vivo
Text: Compound (I) is absorbed quickly.

[12] = Metabolic stability in liver microsomes, human; format: in vitro ADME
Description: The metabolic stability of compound (I) was tested in liver microsomes from all in house available species at 1 and 5 μM. One metabolite of 16 mass units higher than parent, was found in all incubations, except with human liver microsomes.

[13] = target: CYP 2C9 (Homo sapiens, UniProt P11712); test: CYP450 inhibition, cocktail of selective substrates, 2C9; format: in vitro ADME; details: CYP 2C9, Tolbutamide to 4-hydroxytolbutamide; read-out: IC50 of compound (I)
Description: Compound (I) was tested for CYP450 inhibition using a cocktail of selective substrates. […] This might be addressed later in a clinical study.

[14] = Linearity after single s.c. dose in rat; format: in vivo; details: for AUC(0-inf) / Cmax / bioavailability / half-life: Wistar, rat; for AUC(0-inf) / Cmax / bioavailability / half-life / Tmax: plasma, sc; for half-life: read-out: T½ (converted); for Tmax: male Wistar rat, 5% Tween 80
[15] = Metabolic stability in human hepatocytes; format: in vitro ADME; details: 120 minutes at 10 μM
Description: The stability of compound (I) was tested in human hepatocytes incubating for 120 minutes at 10 μM. The compound was stable in human hepatocytes.

[16] = 60 mg/kg p.o. 14 days (Group 4)
[17] = 90 mg/kg p.o. 14 days (Group 5)
[18] = female, NMRI, plasma, intravenous, 10 mg/kg
[19] = female, NMRI, plasma, po, 10 mg/kg p.o.

Sequence of DA transporter (Q01959 whole entry): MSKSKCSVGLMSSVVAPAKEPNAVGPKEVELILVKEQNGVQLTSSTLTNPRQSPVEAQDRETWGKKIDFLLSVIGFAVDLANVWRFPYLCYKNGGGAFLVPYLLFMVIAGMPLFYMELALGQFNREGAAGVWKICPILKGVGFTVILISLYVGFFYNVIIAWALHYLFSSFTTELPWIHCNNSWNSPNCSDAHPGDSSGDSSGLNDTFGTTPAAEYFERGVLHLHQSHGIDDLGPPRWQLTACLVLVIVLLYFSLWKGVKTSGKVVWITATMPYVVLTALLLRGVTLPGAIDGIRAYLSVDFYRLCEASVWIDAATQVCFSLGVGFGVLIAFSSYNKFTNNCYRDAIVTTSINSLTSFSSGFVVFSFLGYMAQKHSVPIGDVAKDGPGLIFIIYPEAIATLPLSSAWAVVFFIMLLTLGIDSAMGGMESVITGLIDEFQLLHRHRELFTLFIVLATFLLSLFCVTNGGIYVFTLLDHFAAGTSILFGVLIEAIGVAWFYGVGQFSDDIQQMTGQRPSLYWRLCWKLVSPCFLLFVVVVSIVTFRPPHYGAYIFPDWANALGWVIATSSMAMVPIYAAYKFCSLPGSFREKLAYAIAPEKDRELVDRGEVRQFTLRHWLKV
Sequence of DAT (Q01959 whole entry): as above
Sequence of CYP 2C9 (P11712 whole entry): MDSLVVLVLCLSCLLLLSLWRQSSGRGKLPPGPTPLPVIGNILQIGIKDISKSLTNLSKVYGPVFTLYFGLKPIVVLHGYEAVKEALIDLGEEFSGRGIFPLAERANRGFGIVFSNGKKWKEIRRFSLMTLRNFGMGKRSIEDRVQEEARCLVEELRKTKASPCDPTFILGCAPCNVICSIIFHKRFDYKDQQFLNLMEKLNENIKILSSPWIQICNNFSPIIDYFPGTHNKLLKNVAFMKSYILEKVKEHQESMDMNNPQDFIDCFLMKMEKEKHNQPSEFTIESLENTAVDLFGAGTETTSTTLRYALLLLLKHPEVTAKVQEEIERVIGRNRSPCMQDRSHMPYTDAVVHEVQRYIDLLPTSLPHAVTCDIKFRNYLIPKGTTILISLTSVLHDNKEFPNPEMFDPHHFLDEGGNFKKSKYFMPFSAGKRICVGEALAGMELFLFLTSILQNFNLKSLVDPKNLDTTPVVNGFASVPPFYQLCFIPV
Sequence of 5-HT transporter (P31652 whole entry): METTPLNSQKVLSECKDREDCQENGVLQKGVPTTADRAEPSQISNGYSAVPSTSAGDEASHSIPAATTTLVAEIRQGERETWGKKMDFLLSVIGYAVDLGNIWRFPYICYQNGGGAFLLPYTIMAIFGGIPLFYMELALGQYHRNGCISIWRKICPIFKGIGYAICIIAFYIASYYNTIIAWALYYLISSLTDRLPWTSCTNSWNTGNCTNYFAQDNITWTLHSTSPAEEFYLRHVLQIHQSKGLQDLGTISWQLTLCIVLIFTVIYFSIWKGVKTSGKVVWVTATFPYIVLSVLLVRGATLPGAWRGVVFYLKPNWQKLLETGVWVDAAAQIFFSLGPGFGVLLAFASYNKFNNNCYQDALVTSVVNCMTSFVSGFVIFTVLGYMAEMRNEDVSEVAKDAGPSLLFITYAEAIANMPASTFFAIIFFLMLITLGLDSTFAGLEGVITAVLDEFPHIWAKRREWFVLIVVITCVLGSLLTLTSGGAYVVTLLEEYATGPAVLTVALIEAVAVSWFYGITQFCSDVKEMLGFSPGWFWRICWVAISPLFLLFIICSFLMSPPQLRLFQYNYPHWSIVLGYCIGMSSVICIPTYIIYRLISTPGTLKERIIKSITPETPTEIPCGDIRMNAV

O=c1ccc2ccc(O[C@@H]3C[C@H]4CC[C@@H](C3)N4)cc2o1 [Compound (I), exo-7-(8-aza-bicyclo[3.2.1]oct-3-yloxy)-chromen-2-one]
Average conc. of compound (I) at 5 min (max), total plasma ([1]; 1 mg/kg): 631 ng/mL
Average conc. of compound (I) at 5 min (max), total plasma ([1]; 3 mg/kg): 2120 ng/mL
Average conc. of compound (I) at 5 min (max), total plasma ([1]; 10 mg/kg): 6560 ng/mL
Average conc. of compound (I) at 5 min (max), total plasma ([1]; 30 mg/kg): 15000 ng/mL
Vd ([2]; intravenous, 2.5 mg/kg): 5.6 L/kg
clearance ([2]; intravenous, 2.5 mg/kg): 137 mL/min/kg
AUC(0-inf) ([2]; iv, 2.5 mg/kg): 306 ng·h/mL
half-life ([2]; iv, 2.5 mg/kg): 48 min
bioavailability ([2]; oral, 5 mg/kg): 3%
AUC(0-inf) ([2]; po, 5 mg/kg): 17 ng·h/mL
Cmax ([2]; po, 5 mg/kg): 8 ng/mL
Tmax ([2]; po, 5 mg/kg): 30 min
fraction unbound at 2710 ng/ml [3]: 0.871
fraction unbound at 2710 ng/ml [4]: 0.714
Activity [5]: increased activity
Body weight gain [5]: no changes in body weight gain
IC50 [6]: 0.1 µM
Ki [6]: 0.1 µM
Human transporter ratio ([6]; DA versus 5-HT): 56
Ki [7]: 0.155 µM
inhibition at 10 µM ([7]; DAT, Human, 10 μM): 97%
DA (AUC0-160 min) ([8]; Hippocampus, 3 mg/kg s.c., 3 mg/kg): 142±36%
DA (AUC0-160 min) ([8]; N.Acc, 10 mg/kg s.c., 10 mg/kg): 192±42%
DA (AUC0-160 min) ([8]; N.Acc, 30 mg/kg s.c., 30 mg/kg): 604±88%
DA (AUC0-160 min) ([8]; Pre-frontal cortex, 1 mg/kg s.c., 1 mg/kg): 132±9%
DA (AUC0-160 min) ([8]; Pre-frontal cortex, 10 mg/kg s.c., 10 mg/kg): 211±40%
DA (AUC0-160 min) ([8]; Pre-frontal cortex, WAY100365 0.1 mg/kg + compound (I) 0.25 mg/kg): 55 ± 2%
DA (AUC0-160 min) ([8]; Striatum, 3 mg/kg s.c., 3 mg/kg): 137±21%
DA (AUC0-160 min) ([8]; Striatum, 10 mg/kg s.c., 10 mg/kg): 134±43%
Kinetic pattern of DA increase in microdialysis (nucleus accumbens) ([8]; rats, 30 mg/kg s.c., compared to bupropion 10 mg/kg s.c. and cocaine 25 mg/kg i.p.): slower kinetic pattern
IC50 [9]: 0.00045 µM
Activity [10, 16]: increase in activity in both male and female
Body weight [10, 16]: significant decrease in body weight in the female group
Relative liver weight [10, 16]: significant decrease in relative liver weight in both sexes
Activity [10, 17]: increase in activity in both male and female
Body weight and relative liver weight [10, 17]: significant decrease in body weight and in relative liver weight in both sexes
Macroscopic findings at termination ([10]; 15 up to 90 mg/kg/day p.o. 14 days): no treatment-related macroscopic findings
T½ i.v. ([11]; 10 mg/kg i.v., 10 mg/kg): 48 min
AUC(0-∞) p.o. ([11]; 10 mg/kg p.o., 10 mg/kg): 2308 ng·h/mL
Vd [11, 18]: 3.5 L/kg
clearance [11, 18]: 71.7 mL/min/kg
AUC(0-inf) ([11]; female, NMRI, plasma, iv, 10 mg/kg, 10 mg/kg i.v., read-out: AUC(0-∞) i.v.): 2310 ng·h/mL
half-life ([11]; female, NMRI, plasma, iv, 10 mg/kg, 10 mg/kg i.v., read-out: T½ i.v. (converted)): 36 min
Cmax [11, 19]: 1090 ng/mL
Tmax [11, 19]: 30 min
AUC(0-inf) ([11]; female, NMRI, plasma, po, 10 mg/kg, 10 mg/kg p.o., read-out: AUC(0-∞) p.o.): 1720 ng·h/mL
half-life ([11]; female, NMRI, plasma, po, 10 mg/kg, 10 mg/kg p.o., read-out: T½ p.o. (converted)): 66 min
bioavailability ([11]; plasma, oral, female NMRI mice, 10 mg/kg p.o. vs 10 mg/kg i.v.): 74%
Metabolite (mass units higher than parent) [12]: None
Stability at 1 μM [12]: 94%
Stability at 5 μM [12]: 93%
IC50 [13]: > 100 µM
AUC(0-inf) ([14]; 1 mg/kg s.c.): 125 ng·h/mL
Cmax ([14]; 1 mg/kg s.c.): 69 ng/mL
bioavailability ([14]; 1 mg/kg s.c., compared to 10 mg/kg i.v. in same vehicle): 117%
half-life ([14]; 1 mg/kg s.c.): 40.2 min
Cmax ([14]; 5 mg/kg s.c.): 320 ng/mL
bioavailability ([14]; 5 mg/kg s.c., compared to 10 mg/kg i.v. in same vehicle): 113%
half-life ([14]; 5 mg/kg s.c.): 46.2 min
Cmax ([14]; 10 mg/kg s.c.): 729 ng/mL
bioavailability ([14]; 10 mg/kg s.c., compared to 10 mg/kg i.v. in same vehicle): 108%
half-life ([14]; 10 mg/kg s.c.): 40.8 min
bioavailability ([14]; s.c. dosing in rats): ~100%
AUC(0-inf) ([14]; male, 5 mg/kg s.c.): 604 ng·h/mL
AUC(0-inf) ([14]; male, 10 mg/kg s.c.): 1150 ng·h/mL
Tmax ([14]; 1 mg/kg s.c.): 60 min
Tmax ([14]; 5 mg/kg s.c.): 60 min
Tmax ([14]; 10 mg/kg s.c.): 30 min
Linearity of kinetics (AUC versus dose) ([14]; rats s.c., relatively low doses, single dose): very nice linear kinetics
Stability in human hepatocytes [15]: stable
